Source: ChEMBL document CHEMBL1145678, “Histamine-release effectors from Angelica dahurica var. dahurica root” (1997)

Assays:
Mus musculus [1] = test: Effect on compound 48/80-induced histamine level in ddY mouse peritoneal cavity fluid assessed as histamine release at 10 mg/kg, ip administered 15 mins before compound 48/80 challenge measured after 10 mins by fluorometric assay relative to control; format: functional; conditions: route intraperitoneal
Mus musculus [2] = test: Effect on compound 48/80-induced histamine level in ddY mouse peritoneal cavity fluid assessed as histamine release at 25 mg/kg, ip administered 15 mins before compound 48/80 challenge measured after 10 mins by fluorometric assay relative to control; format: functional; conditions: route intraperitoneal

Work on `COc1c2ccoc2c(OC[C@@H](OC(C)=O)C(C)(C)O)c2oc(=O)ccc12` yielded an Activity (Mus musculus [1]) of 93.2% and an Activity (Mus musculus [2]) of 151%.

`COc1c2ccoc2cc2oc(=O)ccc12` [BERGAPTEN] showed an Activity (Mus musculus [1]) of 108.2% and an Activity (Mus musculus [2]) of 55.4%.

Work on `COc1c2ccoc2c(OC[C@@H](O)C(C)(C)O)c2oc(=O)ccc12` [BYAKANGELICIN] yielded an Activity (Mus musculus [1]) of 105.4% and an Activity (Mus musculus [2]) of 57%.

Compound `CC(C)(O)[C@H](O)COc1c2ccoc2cc2oc(=O)ccc12` [OXYPEUCEDANIN HYDRATE] has an Activity (Mus musculus [1]) of 114.8% and an Activity (Mus musculus [2]) of 69.1%.

Work on `CC1(C)O[C@H]1COc1c2ccoc2cc2oc(=O)ccc12` [OXYPEUCEDANIN] yielded an Activity (Mus musculus [1]) of 142.6% and an Activity (Mus musculus [2]) of 136.1%.

With `COc1c2ccoc2c(OCC=C(C)C)c2oc(=O)ccc12` [PHELLOPTERIN] the Activity (Mus musculus [1]) was 109.8% and the Activity (Mus musculus [2]) was 137.7%.
